Reference: US11407788B2, “Prostate-specific membrane antigen (PSMA) targeting peptides” (THE CURATORS OF THE UNIVERSITY OF MISSOURI, priority 2016, dated 2022)

Assays:
[1] = test system: PSMA-positive prostate cancer C4-2 cell line; test: Apparent Kd of FAM-labeled peptides by flow cytometry in C4-2 cells; assay type: cell-based
LNCaP cells = test: Competitive inhibition of peptides and their corresponding phages; conditions: for competitive inhibition of peptide to its corresponding phage: peptides at 100 μM
Description: Competitive binding inhibition between selected phages and their encoded peptides was examined in this study. […] The bound phages were recovered and titered as described above.
It was first evaluated whether these phages bind to LNCaP cells via specific interaction with their encoding peptides. LNCaP cells were pre-incubated with the encoding peptides, followed by washing and incubation with the corresponding phages. The bound phages were then eluted and titered.

[2] = test system: PSMA-positive LNCaP cells; test: Apparent Kd of FAM-labeled peptides by flow cytometry in LNCaP cells; assay type: cell-based; conditions: 4° C., 1 h
PSMA = PSMA (Homo sapiens, UniProt Q04609); conditions: Aggarwal et al. 2006; read-out: IC50 of inhibition of PSMA enzymatic activity; cited from earlier work
Chain of PSMA (Q04609 whole entry): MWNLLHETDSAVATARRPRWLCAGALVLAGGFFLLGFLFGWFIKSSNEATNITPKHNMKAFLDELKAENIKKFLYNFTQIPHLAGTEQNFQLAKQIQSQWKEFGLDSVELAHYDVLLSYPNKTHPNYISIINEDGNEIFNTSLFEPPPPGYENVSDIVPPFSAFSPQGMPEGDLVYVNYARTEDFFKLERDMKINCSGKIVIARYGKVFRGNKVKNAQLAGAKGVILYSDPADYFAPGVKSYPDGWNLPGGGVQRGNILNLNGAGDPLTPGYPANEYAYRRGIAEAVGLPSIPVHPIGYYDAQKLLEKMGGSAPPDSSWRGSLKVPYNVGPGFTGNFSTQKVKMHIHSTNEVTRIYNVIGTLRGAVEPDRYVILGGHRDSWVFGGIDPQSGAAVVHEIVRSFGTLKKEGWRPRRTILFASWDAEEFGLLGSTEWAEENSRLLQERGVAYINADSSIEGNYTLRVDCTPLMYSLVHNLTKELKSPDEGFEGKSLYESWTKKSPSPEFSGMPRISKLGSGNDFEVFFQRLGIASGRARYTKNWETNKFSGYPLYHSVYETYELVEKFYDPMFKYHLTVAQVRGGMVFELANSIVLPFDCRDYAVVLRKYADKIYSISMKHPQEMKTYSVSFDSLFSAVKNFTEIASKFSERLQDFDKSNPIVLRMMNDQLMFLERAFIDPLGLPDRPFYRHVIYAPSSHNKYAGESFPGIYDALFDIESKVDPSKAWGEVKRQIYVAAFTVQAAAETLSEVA

Sequence	competitive inhibition of peptide to its corresponding phage (LNCaP cells)	other results
HSDNHYRPADKL	negligible	affinity to C4-2 cells compared to LNCaP cells [1]: less affinity
KYLAYPDSVHIW		Kd [2]: 14.4 µM
NRPDSAQFWLHH	negligible	competitive inhibition of peptide to its corresponding phage at various concentrations (LNCaP cells; series of concentrations): does not affect the binding
QPGHAILAQHPT	negligible	
SMAGEQISWALI	negligible	
TGHLYPTRMEIQ	relatively weaker competitive inhibition	affinity to C4-2 cells compared to LNCaP cells [1]: less affinity
WQPDTAHHWATL		IC50 (PSMA): 23 µM; Kd [2]: 23.6 µM
YPTDWLWHGHNK	negligible	
YVNSHSILGYTG	relatively weaker competitive inhibition	
